The text below walks through data of ChEMBL document CHEMBL1136068 (Bioorg Med Chem Lett, 2003).

Assay [1] has as its target T1, Androgen receptor (Homo sapiens, UniProt P10275).
T1 sequence (P10275 whole entry): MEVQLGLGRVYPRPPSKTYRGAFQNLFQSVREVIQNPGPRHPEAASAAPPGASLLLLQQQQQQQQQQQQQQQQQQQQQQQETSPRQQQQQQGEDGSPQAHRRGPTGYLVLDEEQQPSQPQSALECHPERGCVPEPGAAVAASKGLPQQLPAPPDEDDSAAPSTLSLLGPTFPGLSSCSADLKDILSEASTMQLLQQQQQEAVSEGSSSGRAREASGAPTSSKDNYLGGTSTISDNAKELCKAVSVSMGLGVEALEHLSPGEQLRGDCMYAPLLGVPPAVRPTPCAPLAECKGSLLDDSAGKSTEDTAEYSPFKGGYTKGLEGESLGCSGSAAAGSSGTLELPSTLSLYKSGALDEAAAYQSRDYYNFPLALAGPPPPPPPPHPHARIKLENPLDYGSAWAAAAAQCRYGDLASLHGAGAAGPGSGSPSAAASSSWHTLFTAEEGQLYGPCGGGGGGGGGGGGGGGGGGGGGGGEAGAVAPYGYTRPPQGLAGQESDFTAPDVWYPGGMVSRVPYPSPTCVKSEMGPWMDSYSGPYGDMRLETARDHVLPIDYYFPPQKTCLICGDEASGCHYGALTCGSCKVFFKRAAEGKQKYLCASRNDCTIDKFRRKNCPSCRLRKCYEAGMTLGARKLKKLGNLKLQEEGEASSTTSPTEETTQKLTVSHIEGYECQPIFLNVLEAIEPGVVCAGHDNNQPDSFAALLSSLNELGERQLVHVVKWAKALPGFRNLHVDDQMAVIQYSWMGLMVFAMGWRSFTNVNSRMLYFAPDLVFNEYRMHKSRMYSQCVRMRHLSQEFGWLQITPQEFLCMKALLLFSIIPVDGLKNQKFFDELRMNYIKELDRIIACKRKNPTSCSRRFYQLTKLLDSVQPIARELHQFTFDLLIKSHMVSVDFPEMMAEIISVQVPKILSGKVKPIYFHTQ
Put plainly: Antagonist activity against Androgen receptor; not active. The assay is classed as functional.

For assay [2], the target named is T2, Androgen receptor (Homo sapiens) (UniProt P10275).
T2 sequence (whole entry): T1 sequence (P10275 whole entry)
Briefly: Antagonist efficacy at human androgen (hAR) receptor; not active. In kind it is functional.

Assay [3] concerns the target T3, Glucocorticoid receptor (Homo sapiens) (UniProt P04150).
T3 sequence (whole entry): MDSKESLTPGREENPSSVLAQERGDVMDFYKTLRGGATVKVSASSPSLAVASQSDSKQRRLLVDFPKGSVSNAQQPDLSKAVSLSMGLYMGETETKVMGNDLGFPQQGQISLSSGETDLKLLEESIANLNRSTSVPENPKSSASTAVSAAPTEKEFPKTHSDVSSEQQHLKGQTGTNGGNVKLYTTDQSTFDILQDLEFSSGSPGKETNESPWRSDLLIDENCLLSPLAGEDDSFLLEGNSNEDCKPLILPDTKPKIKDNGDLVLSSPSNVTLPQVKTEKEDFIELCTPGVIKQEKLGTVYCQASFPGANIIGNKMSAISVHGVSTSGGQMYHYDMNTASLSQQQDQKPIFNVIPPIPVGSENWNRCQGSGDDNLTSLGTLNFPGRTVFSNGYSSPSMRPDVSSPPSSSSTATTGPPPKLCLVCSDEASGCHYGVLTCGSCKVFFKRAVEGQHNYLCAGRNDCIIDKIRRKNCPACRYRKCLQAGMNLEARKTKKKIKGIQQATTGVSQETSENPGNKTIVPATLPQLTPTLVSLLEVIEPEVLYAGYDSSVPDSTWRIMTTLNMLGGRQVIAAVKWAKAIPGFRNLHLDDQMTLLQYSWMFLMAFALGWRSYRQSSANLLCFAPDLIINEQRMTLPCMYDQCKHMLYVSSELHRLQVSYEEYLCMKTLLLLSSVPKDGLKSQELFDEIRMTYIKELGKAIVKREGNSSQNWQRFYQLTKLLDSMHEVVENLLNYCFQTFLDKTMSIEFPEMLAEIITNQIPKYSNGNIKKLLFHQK
Briefly: Antagonist efficacy at glucocorticoid (hGR) receptor. In kind it is functional.

Assay [4] has as its target T1, Androgen receptor.
Assay [5] deals with T4, Glucocorticoid receptor (Homo sapiens, UniProt P04150).
T4 sequence (P04150 whole entry): T3 sequence (whole entry)

The target of assay [6] is T1, Androgen receptor. Put plainly: Antagonist activity against human Androgen receptor. The assay is classed as functional.
For assay [7], the target named is T4, Glucocorticoid receptor. Put plainly: Antagonist activity at glucocorticoid receptor. In kind it is functional.
Assay [8] deals with T5, Estrogen receptor (Homo sapiens, UniProt Q92731+P03372). Briefly: Antagonist efficacy with Estrogen receptor; Efficacy <20% and/or potency >[…] nM. The assay is classed as functional.
Assay [9] concerns the target T5, Estrogen receptor. Put plainly: Antagonist activity at estrogen (hER) receptor; Efficacy <20% and/or potency >[…] nM. The assay is classed as functional.
The target of assay [10] is T6, Mineralocorticoid receptor (Homo sapiens) (UniProt P08235).
T6 sequence (whole entry): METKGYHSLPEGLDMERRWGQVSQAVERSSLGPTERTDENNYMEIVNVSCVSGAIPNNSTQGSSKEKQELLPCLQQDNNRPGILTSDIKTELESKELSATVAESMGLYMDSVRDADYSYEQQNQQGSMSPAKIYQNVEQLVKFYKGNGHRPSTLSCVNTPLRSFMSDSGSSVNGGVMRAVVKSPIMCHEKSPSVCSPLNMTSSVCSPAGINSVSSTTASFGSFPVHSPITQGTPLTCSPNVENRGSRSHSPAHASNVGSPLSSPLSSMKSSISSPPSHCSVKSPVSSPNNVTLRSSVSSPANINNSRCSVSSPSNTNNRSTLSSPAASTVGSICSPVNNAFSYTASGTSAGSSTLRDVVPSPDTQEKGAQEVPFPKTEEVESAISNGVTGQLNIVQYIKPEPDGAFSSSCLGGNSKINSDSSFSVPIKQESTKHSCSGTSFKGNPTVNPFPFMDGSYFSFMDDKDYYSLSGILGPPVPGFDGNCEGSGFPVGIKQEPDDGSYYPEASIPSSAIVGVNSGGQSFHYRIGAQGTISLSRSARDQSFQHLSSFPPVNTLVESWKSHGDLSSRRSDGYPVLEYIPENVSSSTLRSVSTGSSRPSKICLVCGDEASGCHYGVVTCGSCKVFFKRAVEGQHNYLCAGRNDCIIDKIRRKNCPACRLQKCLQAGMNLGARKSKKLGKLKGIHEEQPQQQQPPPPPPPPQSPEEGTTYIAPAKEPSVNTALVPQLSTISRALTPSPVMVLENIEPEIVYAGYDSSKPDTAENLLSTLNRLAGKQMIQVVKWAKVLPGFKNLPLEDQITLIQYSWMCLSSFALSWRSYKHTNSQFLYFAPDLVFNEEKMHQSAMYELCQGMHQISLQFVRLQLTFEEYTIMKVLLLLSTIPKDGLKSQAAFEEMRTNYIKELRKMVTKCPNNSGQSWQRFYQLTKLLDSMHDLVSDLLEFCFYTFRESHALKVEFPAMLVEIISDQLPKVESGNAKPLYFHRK
Put plainly: Antagonist activity at mineralocorticoid receptor (hMR); Efficacy <20% and/or potency >[…] nM. In kind it is functional.

Assay [11] concerns the target T6, Mineralocorticoid receptor (Homo sapiens). Briefly: Antagonist efficacy at mineralocorticoid receptor (hMR); Efficacy <20% and/or potency >[…] nM. The assay is classed as functional.

Each structure is given as a SMILES string. Active and inactive are the calls of the source. The calls are words filed in the database; no cut-off is given here.

The term IC50 denotes the concentration that gives 50% inhibition. Low values mean greater potency, high ones weaker potency. The molecule `CC(C)=C/C=C1\Oc2ccc(F)cc2-c2ccc3c(c21)C(C)=CC(C)(C)N3` yielded an IC50 in [1] above 1000 nM. Also, in [2], the Efficacy is below 20%.

On to `CC(=O)C[C@]1(C(C)=O)CC[C@H]2C3C[C@H](C)C4=CC(=O)CC[C@]4(C)[C@H]3CC[C@@]21C` (some centres not stated), for which the Efficacy in assay [3] turned out to be 157%. This molecule also registered an IC50 in assay [4] of 6.1 nM.

As for `CC1=CC(C)(C)Nc2ccc3c(c21)/C(=C/Br)Oc1ccc(F)cc1-3`, the IC50 in [4] is 250 nM; in [5], above 1000 nM.

For `CC/C(C)=C1\Oc2ccc(F)cc2-c2ccc3c(c21)C(C)=CC(C)(C)N3`, the IC50 in assay [6] came to 250 nM; in assay [7], 324 nM. Further, the Efficacy result in [8], in assay [9], in assay [10] and in assay [11] was “inactive” throughout.
